# Data taken from patent EP4527828A1, “BIPHENYL COMPOUND, PHARMACEUTICAL COMPOSITION, METHOD FOR PREPARING SAME, AND USE THEREOF” (Longivitron (Suzhou) Biotechnology Co., Ltd, priority 2022, dated 2023).
# What was measured:
# LAG3/MHCII = molecular target: T1, LAG3/MHCII (Homo sapiens, UniProt P18627); assay: HTRF binding inhibition of LAG3 and its ligand MHCII; conditions: for inhibition at 10 µM: compound at 10 µM, read-out: Inhibition rate; for IC50: binding inhibition LAG3/MHCII
# T1 sequence (P18627 23-450 limits assumed): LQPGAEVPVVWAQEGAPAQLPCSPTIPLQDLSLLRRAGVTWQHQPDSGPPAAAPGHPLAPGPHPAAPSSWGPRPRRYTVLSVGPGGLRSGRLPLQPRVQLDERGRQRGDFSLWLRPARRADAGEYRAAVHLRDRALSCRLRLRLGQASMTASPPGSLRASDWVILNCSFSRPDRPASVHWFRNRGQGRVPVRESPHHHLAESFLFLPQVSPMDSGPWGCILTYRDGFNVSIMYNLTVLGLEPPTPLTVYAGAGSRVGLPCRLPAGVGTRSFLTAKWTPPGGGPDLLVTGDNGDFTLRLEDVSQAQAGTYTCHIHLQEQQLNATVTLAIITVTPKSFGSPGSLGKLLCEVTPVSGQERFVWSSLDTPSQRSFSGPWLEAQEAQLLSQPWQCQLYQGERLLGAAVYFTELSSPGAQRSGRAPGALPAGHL
# Protocol: HTRF (Homogeneous time-resolved fluorescence) is based on two techniques, fluorescence resonance energy transfer (FRET) and time-resolved fluorescence (TRF). The detection was carried out using a 384-well plate. 2 µL of a compound to be tested with an appropriate concentration was collected, 4 µL of Tag1-LAG3 protein (with a final concentration of 10 nmol·L^-1) was added, 4 µL of Tag2-MHCII (with a final concentration of 20 nmol·L^-1) was added, and the plate was incubated at room temperature for 15 min. 10 µL of Anti-Tag1-Tb working solution (prepared by adding 25 µL of Anti-Tag1-Tab mother solution to 2475 µL of dilution buffer) was added, 10 µL of Anti-Tag2-XL665 working solution (prepared by adding 25 µL of Tag2-XL665 mother solution to 2475 µL of dilution buffer) was added, and the plate was sealed with a film and incubated at room temperature for 1 h. The detection was carried out using a Perkin Elma Envision instrument.
# Mouse LAG3 protein = molecular target: T2, Mouse LAG3 protein (Mus musculus, UniProt Q61790); assay: SPR interaction assay, CM5 chip amino coupling, mouse LAG3; format: binding
# T2 sequence (Q61790 24-521): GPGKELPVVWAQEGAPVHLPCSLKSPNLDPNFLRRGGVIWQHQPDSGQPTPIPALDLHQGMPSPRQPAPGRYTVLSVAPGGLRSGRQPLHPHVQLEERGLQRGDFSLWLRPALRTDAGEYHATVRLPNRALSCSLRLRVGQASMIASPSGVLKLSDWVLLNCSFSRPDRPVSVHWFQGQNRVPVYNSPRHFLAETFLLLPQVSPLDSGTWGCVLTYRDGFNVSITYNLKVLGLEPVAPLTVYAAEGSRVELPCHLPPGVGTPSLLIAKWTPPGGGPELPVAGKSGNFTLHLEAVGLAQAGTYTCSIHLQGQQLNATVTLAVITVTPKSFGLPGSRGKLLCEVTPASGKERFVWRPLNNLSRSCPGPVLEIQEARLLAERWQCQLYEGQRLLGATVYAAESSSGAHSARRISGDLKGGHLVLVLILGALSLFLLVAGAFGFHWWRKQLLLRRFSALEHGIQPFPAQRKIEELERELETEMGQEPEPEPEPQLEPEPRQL
# Source text: (§1) A surface plasmon is an electromagnetic wave on a metal surface and is generated by the interaction of photons and electrons which are freely vibrated. Surface plasmon resonance (SPR) is an optical phenomenon that occurs on the surfaces of two media, and such a phenomenon can be induced by photons or electrons. When light enters an optically thinner medium from an optically denser medium, the phenomenon of total reflection occurs, and an evanescent wave is generated and enters the optically thinner medium. When the totally reflected evanescent wave meets the plasmon wave on the metal surface, resonance may occur, the energy of the reflected light decreases, and a resonance peak occurs on the energy spectrum of the reflected light. Such a resonance is called surface plasmon resonance. The angle of incidence causing the surface plasmon resonance is called an SPR angle. An SPR biosensor provides a sensitive, non-labeled detection technique for monitoring intermolecular interactions in real time. The sensor detects the change in the SPR angle, and the SPR is related to the refractive index of the metal surface. When an analyte binds to the chip surface, the refractive index of the chip surface changes, thus causing the change in the SPR angle. This is the basic principle for the SPR biosensor to detect intermolecular interactions in real time. During the interaction analysis, the change in the SPR angle is recorded on the sensorgram in real time.
# (§2) Through the information query, the theoretical isoelectric point of the LAG3 protein is about 9.82, and the amino coupling method was contemplated to immobilize the protein. Since the main ligands of the LAG3 protein are FGL1 and MHCII proteins, after the LAG3 protein was coupled, the FGL1 protein sampling method was used to verify the protein activity.
# (§3) Protein coupling buffer solution: 1.05× PBS-P+; 1.02× PBS-P+
# (§4) Interaction buffer solution: 1.0× PBS-P+, 5% DMSO; 1.0× PBS-P+, 2% DMSO
# (§5) In this experiment, by using the CM5 chip amino coupling method, the human LAG3 protein was immobilized to the Fc2 or Fc3 channel, and the mouse LAG3 protein was immobilized to the Fc3 or Fc4 channel.
# (§6) LAG3 protein coupling conditions were as follows: the concentration was about 25 µg/mL, the system was sodium acetate solution with a pH of 5.5, the chip activation time was 420 s, and the blocking time was 420 s.
# (§7) LAG3 protein coupling conditions were as follows: the concentration was about 50 µg/mL, the system was sodium acetate solution with a pH of 4.5, the chip activation time was 420 s, and the blocking time was 420 s.
# Human LAG3 protein = molecular target: T3, Human LAG3 protein (Homo sapiens, UniProt P18627); assay: SPR interaction assay, CM5 chip amino coupling, human LAG3; format: binding
# T3 sequence (P18627 23-525): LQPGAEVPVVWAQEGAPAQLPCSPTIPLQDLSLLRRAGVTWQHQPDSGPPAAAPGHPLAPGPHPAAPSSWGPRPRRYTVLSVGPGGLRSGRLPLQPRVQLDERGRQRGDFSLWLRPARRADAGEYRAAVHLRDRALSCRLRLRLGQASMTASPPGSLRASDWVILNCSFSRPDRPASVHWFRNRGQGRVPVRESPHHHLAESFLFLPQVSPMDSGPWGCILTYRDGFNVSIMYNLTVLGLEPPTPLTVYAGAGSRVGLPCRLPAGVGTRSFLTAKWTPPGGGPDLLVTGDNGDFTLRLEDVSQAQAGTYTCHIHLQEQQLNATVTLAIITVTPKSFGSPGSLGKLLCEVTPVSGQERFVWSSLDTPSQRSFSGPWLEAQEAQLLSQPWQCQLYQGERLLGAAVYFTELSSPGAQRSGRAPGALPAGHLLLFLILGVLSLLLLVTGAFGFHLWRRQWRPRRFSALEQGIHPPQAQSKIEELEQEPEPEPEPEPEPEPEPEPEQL
# Source text: as §1, §2, §3, §4, §5, §6, §7
# Human FGL1 protein = molecular target: T4, Human FGL1 protein (Homo sapiens, UniProt Q08830); assay: SPR interaction assay, human FGL1; format: binding; conditions: SPR
# T4 sequence (Q08830 23-312): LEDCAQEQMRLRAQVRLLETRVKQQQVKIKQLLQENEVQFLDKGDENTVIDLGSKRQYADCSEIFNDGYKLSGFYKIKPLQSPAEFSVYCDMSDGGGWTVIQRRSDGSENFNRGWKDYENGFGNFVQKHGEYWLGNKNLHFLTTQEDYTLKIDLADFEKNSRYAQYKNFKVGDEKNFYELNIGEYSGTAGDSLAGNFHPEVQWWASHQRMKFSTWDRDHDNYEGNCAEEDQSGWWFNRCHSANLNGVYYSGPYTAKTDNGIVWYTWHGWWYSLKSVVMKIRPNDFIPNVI
# Source text: as §1, §3, §4
smiles,measurement,setting,value
"COc1ccc2cc1-c1cc(ccc1OC)C(=O)CCCCCC2=O [Compound 1, 1^6,2^6-dimethoxy-1,2(1,3)-diphenylcyclononane-3,9-dione]",inhibition at 10 µM,LAG3/MHCII,25.7%
COCCCCOc1ccc2cc1-c1cc(ccc1OCCCCOC)C(=O)CCCCCC2=O [Compound 7],IC50,LAG3/MHCII,35.4 µM
O=C1CCCCCC(=O)c2ccc(OC3CCCC3)c(c2)-c2cc1ccc2O [Compound 3],IC50,LAG3/MHCII,24.2 µM
CCCCCCCOc1ccc2cc1-c1cc(ccc1OCCCCCCC)C(=O)CCCCCC2=O [Compound 6],IC50,LAG3/MHCII,25.7 µM
CCCCCCOc1ccc(C(=O)O)cc1-c1cc(C(=O)NCCCCCNC(=O)C(F)(F)F)ccc1OCCCCCC [Compound 10],IC50,LAG3/MHCII,9.91 µM
CCCCCCOc1ccc(C(=O)O)cc1-c1cc(C(=O)NCCCNC(=O)C(F)(F)F)ccc1OCCCCCC [Compound 9],interaction with the mouse LAG3 protein,Mouse LAG3 protein,does not interact with the mouse LAG3 protein
same,Rmax,Mouse LAG3 protein; ligand Mouse LAG3 protein,8.130 E+4 RU
same,Note,"Mouse LAG3 protein; ligand Mouse LAG3 protein, bound or not bound",Not bound
same,interaction with the human LAG3 protein,Human LAG3 protein,interacts with the human LAG3 protein
same,Rmax,Human LAG3 protein; ligand Human LAG3 protein,129.5 RU
same,Kd,"Human LAG3 protein; ligand Human LAG3 protein, Compound 9 fitted in steady-state mode",324 µM
same,Note,"Human LAG3 protein; ligand Human LAG3 protein, bound or not bound",Bound
same,IC50,LAG3/MHCII,5.67 µM
same,interaction with the human FGL1 protein,Human FGL1 protein,does not interact with the human FGL1 protein
same,Rmax,Human FGL1 protein; ligand FGL1 protein,3.346 E+5 RU
same,Note,"Human FGL1 protein; ligand FGL1 protein, bound or not bound",Not bound
CCCCCCOc1ccc(C(=O)O)cc1-c1cc(C(=O)NCCNC(=O)C(F)(F)F)ccc1OCCCCCC [Compound 11],IC50,LAG3/MHCII,7.96 µM
CCCCCCOc1ccc(C(=O)NCCCCN)cc1-c1cc(C(=O)OC)ccc1OCCCCCC [Compound 12],IC50,LAG3/MHCII,> 100 µM
"O=C1CCCCCC(=O)c2ccc(O)c(c2)-c2cc1ccc2O [Compound 2, 1^6,2^6-dihydroxy-1,2(1,3)-diphenylcyclononane-3,9-dione]",inhibition at 10 µM,LAG3/MHCII,45.9%
CCCCCOc1ccc2cc1-c1cc(ccc1OCCCCC)C(=O)CCCCCC2=O [Compound 5],IC50,LAG3/MHCII,33.2 µM
